# According to ChEMBL document CHEMBL2407052, “7-Substituted-sulfocoumarins are isoform-selective, potent carbonic anhydrase II inhibitors” (Bioorg Med Chem, 2013):
# Activity calls are given as the source filed them. The calls are words filed in the database; no cut-off is given here.
# What was measured:
# Carbonic anhydrase 9 [1] = molecular target: T1, Carbonic anhydrase 9 (Homo sapiens, UniProt Q16790); assay: Inhibition of human transmembrane carbonic anhydrase 9 up to 50 uM after 6 hrs by stopped flow CO2 hydrase assay
# Carbonic anhydrase 1 [2] = molecular target: T2, Carbonic anhydrase 1 (Homo sapiens, UniProt P00915); assay: Inhibition of human cytosolic carbonic anhydrase 1 up to 50 uM after 6 hrs by stopped flow CO2 hydrase assay
# Target sequence in this assay (P00915 2-261 limits assumed): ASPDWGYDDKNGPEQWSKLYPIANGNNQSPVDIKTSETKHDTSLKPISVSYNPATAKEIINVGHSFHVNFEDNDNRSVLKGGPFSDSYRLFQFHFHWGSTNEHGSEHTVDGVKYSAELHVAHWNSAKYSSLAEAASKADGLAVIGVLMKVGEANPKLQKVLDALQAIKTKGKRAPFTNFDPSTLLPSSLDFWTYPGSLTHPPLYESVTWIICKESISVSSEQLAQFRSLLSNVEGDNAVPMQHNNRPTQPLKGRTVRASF
# Carbonic anhydrase 12 = Carbonic anhydrase 12 (Homo sapiens, UniProt O43570); assay: Inhibition of human transmembrane carbonic anhydrase 12 after 6 hrs by stopped flow CO2 hydrase assay
# Chain of Carbonic anhydrase 12 (O43570 whole entry): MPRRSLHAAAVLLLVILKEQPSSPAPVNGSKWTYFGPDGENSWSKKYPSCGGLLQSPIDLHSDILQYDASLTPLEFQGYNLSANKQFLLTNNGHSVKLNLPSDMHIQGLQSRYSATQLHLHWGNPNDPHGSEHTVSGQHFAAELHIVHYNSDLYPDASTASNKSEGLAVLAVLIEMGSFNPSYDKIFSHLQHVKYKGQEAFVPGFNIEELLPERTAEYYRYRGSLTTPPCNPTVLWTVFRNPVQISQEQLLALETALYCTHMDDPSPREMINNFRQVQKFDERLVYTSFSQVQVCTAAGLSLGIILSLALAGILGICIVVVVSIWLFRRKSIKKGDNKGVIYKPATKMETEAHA
# Carbonic anhydrase 9 [3] = molecular target: T1, Carbonic anhydrase 9; assay: Inhibition of human transmembrane carbonic anhydrase 9 after 6 hrs by stopped flow CO2 hydrase assay
# Carbonic anhydrase 1 [4] = molecular target: T2, Carbonic anhydrase 1; assay: Inhibition of human cytosolic carbonic anhydrase 1 after 6 hrs by stopped flow CO2 hydrase assay
# Target sequence in this assay (P00915 whole entry): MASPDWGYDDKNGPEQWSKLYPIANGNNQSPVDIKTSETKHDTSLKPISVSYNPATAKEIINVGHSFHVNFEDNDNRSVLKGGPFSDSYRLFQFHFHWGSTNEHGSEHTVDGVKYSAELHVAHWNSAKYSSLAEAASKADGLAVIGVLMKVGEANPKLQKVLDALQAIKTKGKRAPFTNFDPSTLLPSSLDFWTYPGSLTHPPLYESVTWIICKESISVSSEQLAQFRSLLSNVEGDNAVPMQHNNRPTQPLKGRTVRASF
SMILES,inhibition (Carbonic anhydrase 9 [1]),inhibition (Carbonic anhydrase 1 [2]),Ki (Carbonic anhydrase 12) [µM],Ki (Carbonic anhydrase 9 [3]) [µM],Ki (Carbonic anhydrase 1 [4]) [µM]
CC(=O)Oc1ccc2c(c1)OS(=O)(=O)C=C2,inactive,inactive,> 10,> 10,> 10
O=C(Cc1ccc(Cl)cc1)Oc1ccc2c(c1)OS(=O)(=O)C=C2,inactive,inactive,> 10,> 10,> 10
O=S1(=O)CC(O)c2ccc(OCc3ccccc3)cc2O1 (racemic),inactive,inactive,> 10,> 10,> 10
CS(=O)(=O)Oc1ccc2c(c1)OS(=O)(=O)C=C2,inactive,inactive,> 10,> 10,> 10
O=S1(=O)CC(O)c2ccc(O)cc2O1 (stereo not given),inactive,inactive,> 10,> 10,> 10
COc1ccc2c(c1)OS(=O)(=O)CC2,inactive,inactive,> 10,> 10,> 10
O=S1(=O)CCc2ccc(O)cc2O1,inactive,inactive,> 10,> 10,> 10
O=S1(=O)C=Cc2ccc(O)cc2O1,inactive,inactive,> 10,> 10,> 10
CC(=O)Oc1ccc2c(c1)OS(=O)(=O)CC2,inactive,inactive,> 10,> 10,> 10

# Results, then the compound that gave them:
inhibition (Carbonic anhydrase 9 [1]),inhibition (Carbonic anhydrase 1 [2]),Ki (Carbonic anhydrase 12) [µM],Ki (Carbonic anhydrase 9 [3]) [µM],Ki (Carbonic anhydrase 1 [4]) [µM],SMILES
inactive,inactive,> 10,> 10,> 10,COc1ccc2c(c1)OS(=O)(=O)C=C2
inactive,inactive,> 10,> 10,> 10,O=C(Cc1ccccc1Br)Oc1ccc2c(c1)OS(=O)(=O)C=C2
inactive,inactive,> 10,> 10,> 10,O=C(Cc1ccc(Cl)cc1)Oc1ccc2c(c1)OS(=O)(=O)CC2
inactive,inactive,> 10,> 10,> 10,O=S1(=O)C=Cc2ccc(OCc3ccccc3)cc2O1
inactive,inactive,> 10,> 10,> 10,CS(=O)(=O)Oc1ccc2c(c1)OS(=O)(=O)CC2
inactive,inactive,> 10,> 10,> 10,O=S1(=O)CCc2ccc(OCc3ccccc3)cc2O1
inactive,inactive,> 10,> 10,> 10,O=C(Cc1ccccc1Br)Oc1ccc2c(c1)OS(=O)(=O)CC2
